Results as given in US6590118B1, “Aromatic compounds” (Novo Nordisk A/S, priority 1999, dated 2003).

Row | melting point [°C] | Structure (SMILES)
1 | 152.2 to 153.7 | CC(=O)Nc1ccccc1Oc1ccc(C#N)c(C#N)c1 [Compound 94, N-[2-(3,4-Dicyanophenoxy)phenyl]acetamide]
2 | 144 to 146 | COC(=O)c1ccc(C(=O)c2ccc(NC(=O)c3cccc([N+](=O)[O-])c3)cc2)cc1C(=O)OC [Compound 114, 4-[4-(3-Nitrobenzoylamino)benzoyl]phthalic acid dimethyl ester]
3 | 133 to 137 | COC(=O)c1ccc(C(=O)c2ccccc2NC(=O)c2cccc([N+](=O)[O-])c2)cc1C(=O)OC [Compound 115, 4-[2-(3-Nitrobenzoylamino)benzoyl]phthalic acid dimethyl ester]
4 | 184 to 190 | O=C(O)c1cc(Oc2ccccc2NC(=O)c2cccc([N+](=O)[O-])c2)cc(C(=O)O)c1 [Compound 121, 5-[2-(3-Nitrobenzoylamino)phenoxy]isophthalic acid]
5 | 255 to 257 | O=C(O)c1ccc(Oc2ccccc2NC(=O)c2cccc([N+](=O)[O-])c2)c(C(=O)O)c1 [Compound 122, 4-[2-(3-Nitrobenzoylamino)phenoxy]isophthalic acid]
6 | 225 to 227 | O=C(Nc1ccc(Oc2ccc(C(=O)O)c(C(=O)O)c2)cc1)c1cccc([N+](=O)[O-])c1 [Compound 123, 4-[4-(3-Nitrobenzoylamino)phenoxy]phthalic acid]
7 | 172.8 to 173.9 | O=C(Nc1ccccc1Sc1ccc(C(=O)O)c(C(=O)O)c1)c1cccc([N+](=O)[O-])c1 [Compound 125, 4-[2-(3-Nitrobenzoylamino)phenylsulphenyl]phthalic acid]
8 | 202 to 208 | O=C(O)c1cccc(NC(=O)c2ccccc2Oc2ccc(C(=O)O)c(C(=O)O)c2)c1 [Compound 134, 4-[2-(3-Carboxyphenylcarbamoyl)phenoxy]phthalic acid]
9 | 187.8 to 189.9 | O=C(Cc1ccc(O)c([N+](=O)[O-])c1)Nc1ccccc1Oc1ccc(C(=O)O)c(C(=O)O)c1 [Compound 174, 4-{2-[2-(4-Hydroxy-3-nitrophenyl)-acetylamino]phenoxy}phthalic acid]
10 | 176 to 178.2 | O=C(Cc1cc([N+](=O)[O-])ccc1Cl)Nc1ccccc1Oc1ccc(C(=O)O)c(C(=O)O)c1 [Compound 175, 4-{2-[2-(2-Chloro-5-nitrophenyl)acetylamino]phenoxy}phthalic acid]
11 | 176.5 to 178.1 | N#Cc1ccc(Oc2ccccc2NC(=O)c2cccc([N+](=O)[O-])c2)cc1C#N [Compound 176, N-[2-(3,4-Dicyanophenoxy)phenyl]-3-nitrobenzamide]
